# Laboratory results published in patent US11952368B2, “FAPI dimer compound, FAPI dimer-based positron emission tomography (PET) imaging agent for tumor diagnosis, and preparation method and use thereof” (XIAMEN UNIVERSITY, priority 2021, dated 2024).
# Molecular target: T1, FAP on CAFs (Homo sapiens, UniProt Q12884)
# T1 construct: FAP-expressing CAFs were inoculated in a 24-well plate; endogenous in cells; host or cells: cancer-associated fibroblasts (CAFs)
# T1 sequence (Q12884 1-760): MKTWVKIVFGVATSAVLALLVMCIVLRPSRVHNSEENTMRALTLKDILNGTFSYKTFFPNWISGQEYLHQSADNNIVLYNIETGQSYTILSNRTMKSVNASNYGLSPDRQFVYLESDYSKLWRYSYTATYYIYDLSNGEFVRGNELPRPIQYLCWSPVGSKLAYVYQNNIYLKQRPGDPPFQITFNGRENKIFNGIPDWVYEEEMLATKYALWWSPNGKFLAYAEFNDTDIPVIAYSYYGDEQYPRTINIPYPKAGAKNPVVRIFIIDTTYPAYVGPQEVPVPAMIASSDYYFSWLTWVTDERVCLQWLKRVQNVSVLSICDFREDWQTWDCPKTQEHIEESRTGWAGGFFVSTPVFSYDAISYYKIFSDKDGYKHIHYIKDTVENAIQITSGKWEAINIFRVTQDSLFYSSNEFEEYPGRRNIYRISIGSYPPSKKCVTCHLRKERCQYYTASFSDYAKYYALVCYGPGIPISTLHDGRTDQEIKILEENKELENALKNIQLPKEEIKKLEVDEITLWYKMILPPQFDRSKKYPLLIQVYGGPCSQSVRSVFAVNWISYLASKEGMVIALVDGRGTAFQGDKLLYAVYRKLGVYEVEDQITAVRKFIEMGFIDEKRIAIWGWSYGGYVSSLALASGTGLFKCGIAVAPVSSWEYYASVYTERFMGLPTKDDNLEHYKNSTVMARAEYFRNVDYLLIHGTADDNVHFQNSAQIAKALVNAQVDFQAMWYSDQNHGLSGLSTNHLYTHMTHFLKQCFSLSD
# Experiment: FAP binding assay (radioligand competition) on CAFs
# Description: FAP-expressing CAFs were inoculated in a 24-well plate and cultivated with a 10% (volume fraction) FBS-containing 1640 medium for 48 h before the experiment until a cell density was about 80% to 90%; the medium was changed to an FBS-free 1640 medium; and the ^68Ga-2PEG(3)-FAPI-dimer, ^68Ga-FAPI-46, or ^68Ga-2PEG(3)-FAPI-dimer+11.3 nmol FAPI-46 (for the blocking experiment) was added to the 24-well plate and incubated, with predetermined intervals of 10 min, 30 min, 60 min, 90 min, and 120 min. The FAP binding assay was conducted after a radiolabeled compound and a corresponding unlabeled FAPI derivative (1.27×10^−4-10^−13 mol/L of 2PEG(3)-FAPI-dimer was added to ^68Ga-2PEG(3)-FAPI-dimer; and 2.83×10^−4-1×10^−13 mol/L of FAPI-46 was added to ^68Ga-FAPI-46) were co-incubated for 60 min. A half-inhibitory concentration (IC50s) was calculated by using GraphPad Prism to fit data through nonlinear regression. In each step of the experiment, cells were washed twice with 1 mL of PBS. Finally, CAFs were lysed with 0.5 mL of a 1 mol/L NaOH aqueous solution to conduct radioactive counting with a gamma counter. 3 parallel replicates were set for each experiment.
smiles,measurement,value
CN(CCCN1CCN(C(=O)COCCOCCOCCNC(=O)CCC(=O)N[C@@H](CCCCNC(=O)CN2CCN(CC(=O)O)CCN(CC(=O)O)CCN(CC(=O)O)CC2)C(=O)NCCOCCOCCOCC(=O)N2CCN(CCCN(C)c3ccc4nccc(C(=O)NCC(=O)N5CC(F)(F)C[C@H]5C#N)c4c3)CC2)CC1)c1ccc2nccc(C(=O)NCC(=O)N3CC(F)(F)C[C@H]3C#N)c2c1 [2PEG(3)-FAPI-dimer],IC50 value compared with FAPI-46,similar
